Measured values taken from ChEMBL document CHEMBL3272268 (J Med Chem, 1978).

Target: Serotonin (5-HT) receptor
Assay: Competitive antagonist activity at 5-HT serotonin receptor in Sprague-Dawley rat stomach fundus model assessed as inhibition of 5-HT-induced contractile response

Structure (SMILES): COc1ccc(OC)c(CCCN(C)C)c1
- pA2: 5.45
